{"source": "PubChem BioAssay AID651891", "about": "(Broad Institute, 2012)", "test_system": "L. donovani axenic amastigotes, Alamar blue, 72 h", "test": "antileishmanial activity on axenic amastigotes – plate reader, cherry pick, dose response (AID 651891)", "note": "Calls of active or inactive are those of the source.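 How the source made its calls: active means IC50 below three times the IC50 of the reference antileishmanial control drug; inactive means the rest.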", "data": [{"smiles": "C[C@@H]1CN([C@@H](C)CO)C(=O)c2cccc(NC(=O)c3ccncc3)c2O[C@H]1CN(C)Cc1ccc(Oc2ccccc2)cc1", "values": [{"measurement": "IC50", "result": "21.2 µM (inactive)"}]}]}
